Laboratory results taken from ChEMBL document CHEMBL4028801, “A multifactorial approach to hepatobiliary transporter assessment enables improved therapeutic compound development” (Toxicol Sci, 2013).
Counter-ions that a name gives are not always drawn.

Experiments:
[1] = biological target: T1, ATP-binding cassette sub-family C member 4 (Homo sapiens, UniProt O15439); assay: Inhibition of human MRP4 overexpressed in Sf9 cell membrane vesicles assessed as uptake of [3H]-estradiol-17beta-D-glucuronide in presence of ATP and GSH measured after 20 mins by membrane vesicle transport assay; assay type: ADME, cell-based
T1 sequence (O15439 whole entry): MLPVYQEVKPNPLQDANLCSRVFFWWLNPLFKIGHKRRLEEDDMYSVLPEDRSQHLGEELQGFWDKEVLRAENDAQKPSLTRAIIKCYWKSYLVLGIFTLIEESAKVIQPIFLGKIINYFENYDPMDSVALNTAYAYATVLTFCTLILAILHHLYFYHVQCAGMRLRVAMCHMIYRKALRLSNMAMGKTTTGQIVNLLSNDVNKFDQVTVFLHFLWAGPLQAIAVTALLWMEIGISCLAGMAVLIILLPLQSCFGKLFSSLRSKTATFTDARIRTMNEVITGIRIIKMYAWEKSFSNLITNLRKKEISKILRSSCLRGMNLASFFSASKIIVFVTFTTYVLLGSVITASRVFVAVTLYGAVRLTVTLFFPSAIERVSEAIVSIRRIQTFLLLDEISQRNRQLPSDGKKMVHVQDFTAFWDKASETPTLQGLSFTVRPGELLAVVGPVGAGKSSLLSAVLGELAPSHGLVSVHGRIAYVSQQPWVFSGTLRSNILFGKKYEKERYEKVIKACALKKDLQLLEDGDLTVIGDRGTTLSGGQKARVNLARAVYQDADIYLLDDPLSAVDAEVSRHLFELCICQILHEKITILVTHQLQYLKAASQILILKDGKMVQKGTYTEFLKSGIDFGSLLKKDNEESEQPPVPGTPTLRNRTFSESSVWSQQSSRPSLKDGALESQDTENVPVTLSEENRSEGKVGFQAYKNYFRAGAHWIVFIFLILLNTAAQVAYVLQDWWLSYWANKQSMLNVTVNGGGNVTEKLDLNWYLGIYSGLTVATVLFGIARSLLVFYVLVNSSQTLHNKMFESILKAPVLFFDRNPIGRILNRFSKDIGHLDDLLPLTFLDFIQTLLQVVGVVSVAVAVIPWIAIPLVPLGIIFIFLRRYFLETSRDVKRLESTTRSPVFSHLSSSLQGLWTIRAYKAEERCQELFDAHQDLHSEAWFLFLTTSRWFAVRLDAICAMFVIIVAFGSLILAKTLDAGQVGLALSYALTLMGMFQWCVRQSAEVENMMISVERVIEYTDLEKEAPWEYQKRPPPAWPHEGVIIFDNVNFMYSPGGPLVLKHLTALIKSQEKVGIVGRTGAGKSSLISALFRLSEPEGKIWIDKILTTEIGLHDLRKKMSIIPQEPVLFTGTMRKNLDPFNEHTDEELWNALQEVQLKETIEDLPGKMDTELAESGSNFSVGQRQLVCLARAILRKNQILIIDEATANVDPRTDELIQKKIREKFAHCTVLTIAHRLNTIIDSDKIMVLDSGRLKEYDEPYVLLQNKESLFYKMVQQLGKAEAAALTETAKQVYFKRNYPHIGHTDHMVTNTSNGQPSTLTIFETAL

[2] = biological target: ATP-binding cassette sub-family C member 2 (Homo sapiens, UniProt Q92887); assay: Inhibition of human MRP2 overexpressed in Sf9 cell membrane vesicles assessed as uptake of [3H]-estradiol-17beta-D-glucuronide in presence of ATP and GSH measured after 20 mins by membrane vesicle transport assay
Sequence of ATP-binding cassette sub-family C member 2 (Q92887 whole entry): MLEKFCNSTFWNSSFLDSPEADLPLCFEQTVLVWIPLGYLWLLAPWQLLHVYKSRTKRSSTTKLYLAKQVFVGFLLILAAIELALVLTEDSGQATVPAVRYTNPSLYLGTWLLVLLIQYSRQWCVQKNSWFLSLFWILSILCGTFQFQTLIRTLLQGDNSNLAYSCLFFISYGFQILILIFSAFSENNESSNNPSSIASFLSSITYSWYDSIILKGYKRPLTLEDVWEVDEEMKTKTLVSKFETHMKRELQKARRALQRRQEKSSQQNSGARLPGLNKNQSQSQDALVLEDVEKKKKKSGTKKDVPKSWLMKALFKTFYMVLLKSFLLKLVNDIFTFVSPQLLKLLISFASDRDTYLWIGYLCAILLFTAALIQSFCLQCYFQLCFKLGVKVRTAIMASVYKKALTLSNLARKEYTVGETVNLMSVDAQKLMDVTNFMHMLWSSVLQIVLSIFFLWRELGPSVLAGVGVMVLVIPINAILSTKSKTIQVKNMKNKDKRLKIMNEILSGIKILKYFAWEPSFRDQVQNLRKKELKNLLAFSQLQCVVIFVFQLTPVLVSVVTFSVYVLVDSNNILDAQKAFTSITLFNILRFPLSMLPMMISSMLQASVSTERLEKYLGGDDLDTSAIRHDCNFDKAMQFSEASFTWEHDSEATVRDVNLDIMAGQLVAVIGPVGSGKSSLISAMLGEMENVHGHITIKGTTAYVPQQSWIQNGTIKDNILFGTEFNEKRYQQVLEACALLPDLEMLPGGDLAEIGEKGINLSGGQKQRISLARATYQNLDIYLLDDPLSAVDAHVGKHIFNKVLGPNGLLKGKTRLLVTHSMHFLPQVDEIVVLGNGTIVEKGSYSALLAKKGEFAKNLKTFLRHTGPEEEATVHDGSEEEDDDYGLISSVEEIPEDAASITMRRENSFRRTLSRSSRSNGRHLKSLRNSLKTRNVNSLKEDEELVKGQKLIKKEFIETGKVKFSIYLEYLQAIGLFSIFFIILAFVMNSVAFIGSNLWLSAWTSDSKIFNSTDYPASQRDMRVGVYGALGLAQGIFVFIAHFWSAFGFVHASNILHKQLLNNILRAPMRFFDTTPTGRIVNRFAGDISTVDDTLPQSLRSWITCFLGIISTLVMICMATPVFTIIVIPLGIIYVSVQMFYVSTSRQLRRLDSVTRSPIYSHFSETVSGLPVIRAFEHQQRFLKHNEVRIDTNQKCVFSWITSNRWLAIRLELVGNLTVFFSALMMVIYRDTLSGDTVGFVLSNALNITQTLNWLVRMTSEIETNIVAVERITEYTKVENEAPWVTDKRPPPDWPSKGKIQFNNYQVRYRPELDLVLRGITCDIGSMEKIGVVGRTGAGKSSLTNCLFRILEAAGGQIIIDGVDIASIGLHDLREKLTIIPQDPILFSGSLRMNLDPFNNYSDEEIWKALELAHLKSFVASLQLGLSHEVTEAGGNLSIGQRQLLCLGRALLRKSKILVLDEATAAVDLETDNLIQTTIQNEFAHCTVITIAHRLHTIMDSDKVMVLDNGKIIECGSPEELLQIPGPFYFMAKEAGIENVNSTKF

[3] = biological target: ATP-binding cassette sub-family C member 3 (Homo sapiens, UniProt O15438); assay: Inhibition of human MRP3 overexpressed in Sf9 insect cell membrane vesicles assessed as uptake of [3H]-estradiol-17beta-D-glucuronide in presence of ATP and GSH measured after 10 mins by membrane vesicle transport assay; assay type: ADME, cell-based
Sequence of ATP-binding cassette sub-family C member 3 (O15438 whole entry): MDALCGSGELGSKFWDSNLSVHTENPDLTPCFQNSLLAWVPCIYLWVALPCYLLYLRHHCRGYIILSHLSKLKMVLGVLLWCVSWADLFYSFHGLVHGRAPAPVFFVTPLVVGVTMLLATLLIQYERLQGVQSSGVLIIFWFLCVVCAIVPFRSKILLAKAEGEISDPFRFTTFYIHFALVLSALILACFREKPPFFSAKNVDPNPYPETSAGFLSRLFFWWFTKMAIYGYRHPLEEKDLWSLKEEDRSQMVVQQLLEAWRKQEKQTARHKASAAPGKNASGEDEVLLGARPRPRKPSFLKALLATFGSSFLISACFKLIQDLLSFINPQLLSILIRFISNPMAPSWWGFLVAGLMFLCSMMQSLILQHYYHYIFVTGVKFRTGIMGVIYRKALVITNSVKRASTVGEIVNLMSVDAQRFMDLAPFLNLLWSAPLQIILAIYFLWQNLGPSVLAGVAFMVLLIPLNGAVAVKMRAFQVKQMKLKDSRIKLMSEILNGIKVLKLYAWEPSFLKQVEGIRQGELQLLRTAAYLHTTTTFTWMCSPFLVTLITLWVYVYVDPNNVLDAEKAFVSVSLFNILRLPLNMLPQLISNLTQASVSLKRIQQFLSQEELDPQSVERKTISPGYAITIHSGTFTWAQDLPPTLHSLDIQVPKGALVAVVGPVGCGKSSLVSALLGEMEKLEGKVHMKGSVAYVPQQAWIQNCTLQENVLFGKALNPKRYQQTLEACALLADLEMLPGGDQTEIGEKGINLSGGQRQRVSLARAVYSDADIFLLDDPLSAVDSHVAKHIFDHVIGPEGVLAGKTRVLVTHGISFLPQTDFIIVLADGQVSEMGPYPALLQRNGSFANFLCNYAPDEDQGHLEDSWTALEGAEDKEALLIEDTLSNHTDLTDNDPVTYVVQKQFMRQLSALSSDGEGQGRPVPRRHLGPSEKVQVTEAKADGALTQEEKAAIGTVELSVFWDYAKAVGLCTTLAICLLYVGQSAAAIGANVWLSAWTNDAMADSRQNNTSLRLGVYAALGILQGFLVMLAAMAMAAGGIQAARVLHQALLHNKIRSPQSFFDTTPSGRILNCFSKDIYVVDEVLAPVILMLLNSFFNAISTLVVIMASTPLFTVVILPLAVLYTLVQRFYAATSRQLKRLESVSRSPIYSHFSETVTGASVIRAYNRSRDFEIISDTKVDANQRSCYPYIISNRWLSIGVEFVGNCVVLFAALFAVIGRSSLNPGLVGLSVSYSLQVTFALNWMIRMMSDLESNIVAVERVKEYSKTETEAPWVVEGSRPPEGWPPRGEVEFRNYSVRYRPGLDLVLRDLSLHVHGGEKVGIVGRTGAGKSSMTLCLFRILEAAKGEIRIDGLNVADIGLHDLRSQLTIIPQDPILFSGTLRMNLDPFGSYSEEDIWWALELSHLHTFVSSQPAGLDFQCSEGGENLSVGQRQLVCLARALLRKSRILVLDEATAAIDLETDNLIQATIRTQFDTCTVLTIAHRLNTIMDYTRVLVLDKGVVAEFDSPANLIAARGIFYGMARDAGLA

Bile salt export pump = Bile salt export pump (Homo sapiens, UniProt O95342); assay: Inhibition of human BSEP overexpressed in Sf9 cell membrane vesicles assessed as uptake of [3H]-taurocholate in presence of ATP measured after 15 to 20 mins by membrane vesicle transport assay; assay type: ADME, cell-based
Sequence of Bile salt export pump (O95342 whole entry): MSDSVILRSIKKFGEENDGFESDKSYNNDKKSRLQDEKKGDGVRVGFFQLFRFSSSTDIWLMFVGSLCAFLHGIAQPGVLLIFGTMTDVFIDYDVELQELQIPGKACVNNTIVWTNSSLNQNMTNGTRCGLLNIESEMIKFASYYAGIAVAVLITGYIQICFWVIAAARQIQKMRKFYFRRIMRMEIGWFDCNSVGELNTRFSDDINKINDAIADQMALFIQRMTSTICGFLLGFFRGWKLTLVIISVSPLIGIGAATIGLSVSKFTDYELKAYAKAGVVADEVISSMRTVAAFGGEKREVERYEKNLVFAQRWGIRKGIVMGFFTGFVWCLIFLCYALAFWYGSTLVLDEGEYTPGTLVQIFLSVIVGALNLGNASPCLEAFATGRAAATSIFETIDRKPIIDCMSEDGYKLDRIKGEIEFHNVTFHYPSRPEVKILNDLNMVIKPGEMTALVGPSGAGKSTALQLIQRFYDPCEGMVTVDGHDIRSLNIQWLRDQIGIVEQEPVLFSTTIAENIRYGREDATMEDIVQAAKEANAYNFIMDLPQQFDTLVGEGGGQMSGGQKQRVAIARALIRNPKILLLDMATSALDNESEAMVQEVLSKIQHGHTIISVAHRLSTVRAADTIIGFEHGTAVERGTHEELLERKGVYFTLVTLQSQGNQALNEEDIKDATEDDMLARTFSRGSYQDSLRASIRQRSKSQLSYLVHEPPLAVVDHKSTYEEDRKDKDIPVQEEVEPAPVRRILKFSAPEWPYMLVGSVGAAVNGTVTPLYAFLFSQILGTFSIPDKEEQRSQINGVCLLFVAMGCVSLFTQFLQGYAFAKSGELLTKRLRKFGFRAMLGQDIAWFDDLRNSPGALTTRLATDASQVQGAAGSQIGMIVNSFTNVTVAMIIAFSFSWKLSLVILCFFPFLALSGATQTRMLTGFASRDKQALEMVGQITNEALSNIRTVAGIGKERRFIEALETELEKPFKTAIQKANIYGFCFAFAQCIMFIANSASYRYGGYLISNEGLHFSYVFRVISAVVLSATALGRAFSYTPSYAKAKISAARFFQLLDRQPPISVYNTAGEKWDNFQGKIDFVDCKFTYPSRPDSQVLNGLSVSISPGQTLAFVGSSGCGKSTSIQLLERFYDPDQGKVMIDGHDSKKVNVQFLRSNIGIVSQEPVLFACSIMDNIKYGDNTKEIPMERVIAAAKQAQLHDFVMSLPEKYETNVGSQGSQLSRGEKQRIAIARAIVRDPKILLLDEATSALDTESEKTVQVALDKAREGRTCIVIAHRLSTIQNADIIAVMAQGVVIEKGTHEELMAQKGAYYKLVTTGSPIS

Compound	IC50 [1] [µM]	IC50 [2] [µM]	IC50 [3] [µM]	IC50 (Bile salt export pump) [µM]
NCC[C@H](O)C(=O)N[C@@H]1C[C@H](N)[C@@H](O[C@H]2O[C@H](CN)[C@@H](O)[C@H](O)[C@H]2O)[C@H](O)[C@H]1O[C@H]1O[C@H](CO)[C@@H](O)[C@H](N)[C@H]1O [AMIKACIN]	> 133	> 133	> 133	> 133
CN(Cc1cnc2nc(N)nc(N)c2n1)c1ccc(C(=O)N[C@@H](CCC(=O)O)C(=O)O)cc1 [METHOTREXATE]	> 133	> 133	> 133	> 133
CCN1CCN(C(=O)N[C@@H](C(=O)N[C@@H]2C(=O)N3[C@@H]2SC(C)(C)[C@@H]3C(=O)O)c2ccccc2)C(=O)C1=O [PIPERACILLIN SODIUM]	> 133	> 133	> 133	> 133
CC(C)C[C@H](CN)CC(=O)O [PREGABALIN]	> 133	> 133	> 133	> 133
COc1cc2nc(N3CCN(C(=O)C4CCCO4)CC3)nc(N)c2cc1OC (centres undefined) [TERAZOSIN]	36.8	> 133	> 133	> 133
CN(C)CCOc1ccc(/C(=C(/CCCl)c2ccccc2)c2ccccc2)cc1 [TOREMIFENE CITRATE]	> 133	> 133	> 133	115
Nc1nc2c(ncn2COCCO)c(=O)[nH]1 [ACYCLOVIR]	> 133	> 133	> 133	> 133
CN(C)CCc1c[nH]c2ccc(Cn3cncn3)cc12 [RIZATRIPTAN BENZOATE]	> 133	> 133	> 133	> 133
O=C(O)Cc1ccc(-c2ccccc2)cc1 [FELBINAC]	8.2	> 133	> 133	> 133
c1cnc2cc3c(cc2n1)[C@@H]1CNC[C@H]3C1	> 133	> 133	> 133	> 133
CC(C)NCC(O)COc1ccc(CC(N)=O)cc1 (centres undefined) [ATENOLOL]	> 133	> 133	> 133	> 133
O=c1[nH]cc(F)c(=O)[nH]1 [FLUOROURACIL]	> 133	> 133	> 133	> 133
Cc1nnc(SCC2=C(C(=O)O)N3C(=O)[C@@H](NC(=O)Cn4cnnn4)[C@H]3SC2)s1 [CEFAZOLIN SODIUM]	54.2	> 133	> 133	> 133
CCC(=O)O[C@]1(C(=O)SCF)[C@H](C)C[C@H]2[C@@H]3C[C@H](F)C4=CC(=O)C=C[C@]4(C)[C@@]3(F)[C@@H](O)C[C@@]21C [FLUTICASONE PROPIONATE]	> 133	> 133	> 133	> 133
O=C(NCCN1CCOCC1)c1ccc(Cl)cc1 [MOCLOBEMIDE]	> 133	> 133	> 133	> 133
O=C(NC[C@H]1CN(c2ccc(N3CCOCC3=O)cc2)C(=O)O1)c1ccc(Cl)s1 [RIVAROXABAN]	> 133	> 133	> 133	> 133
CN(C)c1ccc(O)c2c1C[C@H]1C[C@H]3[C@H](N(C)C)C(O)=C(C(N)=O)C(=O)[C@@]3(O)C(O)=C1C2=O [MINOCYCLINE HYDROCHLORIDE]	> 133	> 133	> 133	> 133
O=C(NCCO[N+](=O)[O-])c1cccnc1 [NICORANDIL]	> 133	> 133	> 133	> 133
CCN1CCC[C@H]1CNC(=O)c1c(OC)ccc(Br)c1OC [REMOXIPRIDE]	> 133	> 133	> 133	> 133
C[C@]12CC[C@H]3[C@@H](CC[C@@]45O[C@@H]4C(O)=C(C#N)C[C@]35C)[C@@H]1CC[C@@H]2O [TRILOSTANE]	> 133	> 133	> 133	> 133
Cc1ccnc2c1NC(=O)c1cccnc1N2C1CC1 [NEVIRAPINE]	> 133	> 133	> 133	> 133

Compound	IC50 [1] [µM]	IC50 [2] [µM]	IC50 [3] [µM]	IC50 (Bile salt export pump) [µM]
SPIRAMYCIN	> 133	> 133	> 133	> 133
Cc1cn([C@H]2C=C[C@@H](CO)O2)c(=O)[nH]c1=O [STAVUDINE]	> 133	> 133	> 133	> 133
Cc1cccc(Nc2ccccc2C(=O)O)c1C [MEFENAMIC ACID]	> 133	> 133	> 133	> 133
Cn1c(=O)c2[nH]cnc2n(C)c1=O [THEOPHYLLINE]	> 133	> 133	> 133	> 133
Nc1ccn(C[C@@H](CO)OCP(=O)(O)O)c(=O)n1 [CIDOFOVIR]	> 133	> 133	> 133	> 133
CCOC(=O)c1ccc(C#Cc2ccc3c(c2)C(C)(C)CCS3)nc1 [TAZAROTENE]	> 133	> 133	> 133	> 133
O=C(O)CCNC(=O)c1ccccc1 [BETAMIPRON]	> 133	> 133	> 133	> 133
NS(=O)(=O)Cc1noc2ccccc12 [ZONISAMIDE]	> 133	> 133	> 133	> 133
CCn1cc(C(=O)O)c(=O)c2cc(F)c(N3CCN(C)CC3)cc21 [PEFLOXACIN]	> 133	> 133	> 133	> 133
Cc1nccn1CC1CCc2c(c3ccccc3n2C)C1=O (centres undefined) [ONDANSETRON]	> 133	> 133	> 133	> 133
Cc1cccc(Nc2cc(Cl)nc(SCC(=O)O)n2)c1C [PIRINIXIC ACID]	44.9	> 133	> 133	99
Oc1ncnc2[nH]ncc12 [ALLOPURINOL]	> 133	> 133	> 133	> 133
CN(CCOc1ccc(NS(C)(=O)=O)cc1)CCc1ccc(NS(C)(=O)=O)cc1 [DOFETILIDE]	> 133	> 133	> 133	> 133
CC(=O)Oc1ccc(C(c2ccc(OC(C)=O)cc2)c2ccccn2)cc1 [BISACODYL]	> 133	> 133	> 133	> 133
CCn1cc(C(=O)O)c(=O)c2ccc(C)nc21 [NALIDIXIC ACID]	57.5	> 133	> 133	> 133
C=C1C[C@@H]2[C@H](CC[C@]3(C)C(=O)CC[C@@H]23)[C@@]2(C)C=CC(=O)C=C12 [EXEMESTANE]	> 133	> 133	> 133	90
CN1CCC[C@H]1c1cccnc1 [NICOTINE]	> 133	> 133	> 133	> 133
C=C[C@H]1C[N@@]2CC[C@H]1C[C@H]2[C@H](O)c1ccnc2ccc(OC)cc12 [QUININE]	> 133	> 133	> 133	> 133
CC1CCN(CCCC(=O)c2ccc(F)cc2)CC1 [MELPERONE]	> 133	> 133	> 133	> 133
NS(=O)(=O)c1cc2c(cc1Cl)NCNS2(=O)=O [HYDROCHLOROTHIAZIDE]	> 133	> 133	> 133	> 133
